{"source": "patent US20230085307A1", "about": "“PYRIDAZINONE COMPOUND AND HERBICIDE” (NISSAN CHEMICAL CORPORATION, priority 2019, published 2023)", "key": {"barnyard grass [1]": {"tested_on": "barnyard grass", "assay": "Test Example 5: herbicidal effect by foliage application, plastic box (Table 20, symbol H)", "assay_type": "in vivo, barnyard grass (Echinochloa crus-galli)", "conditions": "320 g/ha", "outline": "(§1)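 Plants sown in sterilized diluvial soil and grown 14 days in a greenhouse at 25° C to 30° C, then sprayed on the foliage with the compound's emulsion diluted in water to a predetermined herbicide amount. Injury to weeds and crops scored three weeks after application on a visual rating scale.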"}, "green foxtail [2]": {"tested_on": "green foxtail", "assay": "Test Example 4: herbicidal effect by soil treatment (Table 19, symbol G)", "assay_type": "in vivo, green foxtail (Setaria viridis)", "conditions": "amount of applied herbicide 320 g/ha", "excerpt": "(§2) [Test Example 4] Herbicidal Effect Test by Soil Treatment\n(§3) Sterilized diluvial soil was placed in a plastic box having a length of 21 cm, a width of 13 cm, and a depth of 7 cm. The seeds of each of southern crabgrass, green foxtail, barnyard grass, wild oat, blackgrass, Italian ryegrass, windgrass, velvetleaf, redroot pigweed, lambsquarters, chickweed, false cleavers, persian speedwell, corn, soybean, rice, wheat, beet, and rapeseed were sowed in a spot-like manner and covered with the soil having a thickness of about 1.5 cm. Subsequently, the emulsion agent of the compound of the present invention prepared according to Formulation Example 2 was diluted with water so as to achieve a predetermined herbicide amount, and the diluted emulsion agent was uniformly applied to the surface of the soil with a small-sized spray. The plastic box was placed in a greenhouse at 25° C. to 30° C. for growth of the plants. Three weeks after the herbicide application, the effect of the herbicide on each plant was evaluated according to the criteria of Test Example 1."}, "redroot pigweed [3]": {"tested_on": "redroot pigweed", "assay": "Test Example 5: herbicidal effect by foliage application, plastic box (Table 20, symbol N)", "assay_type": "in vivo, redroot pigweed (Amaranthus retroflexus)", "conditions": "320 g/ha", "excerpt": "(§4) [Test Example 5] Herbicidal Effect Test by Foliage Application\nas §3, with “Thereafter, the plants were grown in a greenhouse at 25° C. to 30° C. After 14-day growth of the plants,” for “Subsequently,”, “a foliage part” for “the surface of the soil”, “spray.” for “spray. The plastic box was placed in a greenhouse at 25° C. to 30° C. for growth of the plants.”"}, "Chinese sprangletop": {"tested_on": "Chinese sprangletop", "assay": "Test Example 3: herbicidal effect by foliage application, Wagner pot (Table 18, symbol D)", "assay_type": "in vivo, chinese sprangletop (Leptochloa chinensis)", "conditions": "amount of applied herbicide 320 g/ha", "outline": "(§5)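 Plants were sown in alluvial soil held under 0.1–0.5 cm standing water and grown 14 days in a greenhouse at 25–30 °C. An emulsifiable formulation, water-diluted to the set dose, was then sprayed onto the foliage, and effects were scored three weeks later using previously defined criteria.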"}, "rice flat sedge": {"tested_on": "rice flat sedge", "assay": "Test Example 3: herbicidal effect by foliage application, Wagner pot (Table 18, symbol E)", "assay_type": "in vivo, rice flat sedge (Cyperus iria)", "conditions": "amount of applied herbicide 320 g/ha", "outline": "as §5"}, "southern crabgrass [4]": {"tested_on": "southern crabgrass", "assay": "Test Example 4: herbicidal effect by soil treatment (Table 19, symbol F)", "assay_type": "in vivo, southern crabgrass (Digitaria ciliaris)", "conditions": "amount of applied herbicide 320 g/ha", "excerpt": "as §2, §3"}, "lambsquarters [5]": {"tested_on": "lambsquarters", "assay": "Test Example 4: herbicidal effect by soil treatment (Table 19, symbol O)", "assay_type": "in vivo, lambsquarters (Chenopodium album)", "conditions": "amount of applied herbicide 320 g/ha", "excerpt": "as §2, §3"}, "velvetleaf [6]": {"tested_on": "velvetleaf", "assay": "Test Example 4: herbicidal effect by soil treatment (Table 19, symbol M)", "assay_type": "in vivo, velvetleaf (Abutilon theophrasti)", "conditions": "amount of applied herbicide 320 g/ha", "excerpt": "as §2, §3"}, "barnyard grass [7]": {"tested_on": "barnyard grass", "assay": "Test Example 4: herbicidal effect by soil treatment (Table 19, symbol H)", "assay_type": "in vivo, barnyard grass (Echinochloa crus-galli)", "conditions": "amount of applied herbicide 320 g/ha", "excerpt": "as §2, §3"}, "green foxtail [8]": {"tested_on": "green foxtail", "assay": "Test Example 5: herbicidal effect by foliage application, plastic box (Table 20, symbol G)", "assay_type": "in vivo, green foxtail (Setaria viridis)", "conditions": "320 g/ha", "excerpt": "as §4\nas §3, with “Thereafter, the plants were grown in a greenhouse at 25° C. to 30° C. After 14-day growth of the plants,” for “Subsequently,”, “a foliage part” for “the surface of the soil”, “spray.” for “spray. The plastic box was placed in a greenhouse at 25° C. to 30° C. for growth of the plants.”"}, "lambsquarters [9]": {"tested_on": "lambsquarters", "assay": "Test Example 5: herbicidal effect by foliage application, plastic box (Table 20, symbol O)", "assay_type": "in vivo, lambsquarters (Chenopodium album)", "conditions": "320 g/ha", "excerpt": "as §4\nas §3, with “Thereafter, the plants were grown in a greenhouse at 25° C. to 30° C. After 14-day growth of the plants,” for “Subsequently,”, “a foliage part” for “the surface of the soil”, “spray.” for “spray. The plastic box was placed in a greenhouse at 25° C. to 30° C. for growth of the plants.”"}, "barnyard grass [10]": {"tested_on": "barnyard grass", "assay": "Test Example 3: herbicidal effect by foliage application, Wagner pot (Table 18, symbol H)", "assay_type": "in vivo, barnyard grass (Echinochloa crus-galli)", "conditions": "amount of applied herbicide 320 g/ha", "procedure": "[Test Example 3] Herbicidal Effect Test by Foliage Application After alluvial soil was placed into 1/10000 are of Wagner pot, water was poured and mixed to form a submerged condition having a water depth of 0.1 cm to 0.5 cm. Seeds of barnyard grass, Chinese sprangletop, rice flat sedge, and rice were sowed and the pot was placed in a greenhouse at 25° C. to 30° C. for growth of the plants. After 14-day growth of the plants, the emulsion agent of the compound of the present invention prepared according to Formulation Example 2 was diluted with water so as to achieve a predetermined herbicide amount, and the diluted emulsion agent was uniformly applied to a foliage part with a small-sized spray. Three weeks after the herbicide application, the effect of the herbicide on each plant was evaluated according to the criteria of Test Example 1."}, "southern crabgrass [11]": {"tested_on": "southern crabgrass", "assay": "Test Example 5: herbicidal effect by foliage application, plastic box (Table 20, symbol F)", "assay_type": "in vivo, southern crabgrass (Digitaria ciliaris)", "conditions": "320 g/ha", "excerpt": "as §4\nas §3, with “Thereafter, the plants were grown in a greenhouse at 25° C. to 30° C. After 14-day growth of the plants,” for “Subsequently,”, “a foliage part” for “the surface of the soil”, “spray.” for “spray. The plastic box was placed in a greenhouse at 25° C. to 30° C. for growth of the plants.”"}, "velvetleaf [12]": {"tested_on": "velvetleaf", "assay": "Test Example 5: herbicidal effect by foliage application, plastic box (Table 20, symbol M)", "assay_type": "in vivo, velvetleaf (Abutilon theophrasti)", "conditions": "320 g/ha", "outline": "as §1"}, "redroot pigweed [13]": {"tested_on": "redroot pigweed", "assay": "Test Example 4: herbicidal effect by soil treatment (Table 19, symbol N)", "assay_type": "in vivo, redroot pigweed (Amaranthus retroflexus)", "conditions": "amount of applied herbicide 320 g/ha", "excerpt": "as §2, §3"}, "[14]": {"conditions": "foliage application, three weeks after application"}, "[15]": {"conditions": "foliage application after 14-day growth, evaluated three weeks after application"}}}
{"smiles": "COCCOc1ccc(-c2sc3ccc(F)cc3c2-c2c(O)c(N)nn(C)c2=O)cc1", "note": "[2-456]", "values": [{"measurement": "H: barnyard grass, herbicidal effect grade", "setting": "barnyard grass [1]; [14]", "result": "2 (Herbicidal rate of 20% or more and less than 40%)"}, {"measurement": "herbicidal effect, G: green foxtail", "setting": "green foxtail [2]", "result": "0 (Herbicidal rate of 5% or less (almost no effect))"}, {"measurement": "N: redroot pigweed, herbicidal effect grade", "setting": "redroot pigweed [3]; [14]", "result": "4 (Herbicidal rate of 70% or more and less than 90%)"}, {"measurement": "herbicidal effect on D: Chinese sprangletop", "setting": "Chinese sprangletop", "result": "0 (Herbicidal rate of 5% or less (almost no effect))"}, {"measurement": "herbicidal effect on E: rice flat sedge", "setting": "rice flat sedge", "result": "0 (Herbicidal rate of 5% or less (almost no effect))"}, {"measurement": "herbicidal effect, F: southern crabgrass", "setting": "southern crabgrass [4]", "result": "0 (Herbicidal rate of 5% or less (almost no effect))"}, {"measurement": "herbicidal effect, O: lambsquarters", "setting": "lambsquarters [5]", "result": "3 (Herbicidal rate of 40% or more and less than 70%)"}, {"measurement": "herbicidal effect, M: velvetleaf", "setting": "velvetleaf [6]", "result": "0 (Herbicidal rate of 5% or less (almost no effect))"}, {"measurement": "herbicidal effect, H: barnyard grass", "setting": "barnyard grass [7]", "result": "0 (Herbicidal rate of 5% or less (almost no effect))"}, {"measurement": "G: green foxtail, herbicidal effect grade", "setting": "green foxtail [8]; [14]", "result": "1 (Herbicidal rate of 5% or more and less than 20%)"}, {"measurement": "O: lambsquarters, herbicidal effect grade", "setting": "lambsquarters [9]; [14]", "result": "3 (Herbicidal rate of 40% or more and less than 70%)"}, {"measurement": "herbicidal effect on H: barnyard grass", "setting": "barnyard grass [10]", "result": "3 (Herbicidal rate of 40% or more and less than 70%)"}, {"measurement": "F: southern crabgrass, herbicidal effect grade", "setting": "southern crabgrass [11]; [14]", "result": "0 (Herbicidal rate of 5% or less (almost no effect))"}, {"measurement": "M: velvetleaf, herbicidal effect grade", "setting": "velvetleaf [12]; [14]", "result": "3 (Herbicidal rate of 40% or more and less than 70%)"}, {"measurement": "herbicidal effect, N: redroot pigweed", "setting": "redroot pigweed [13]", "result": "5 (Herbicidal rate of 90% or more (almost completely withered))"}]}
{"smiles": "Cc1ccc2c(-c3c(O)c(C)nn(C)c3=O)c(-c3ccc(OC(F)(F)F)cc3)sc2c1", "note": "[3-168]", "values": [{"measurement": "herbicidal effect on H: barnyard grass (evaluation grade 0-5)", "setting": "barnyard grass [1]; [15]", "result": "0 (Herbicidal rate of 5% or less (almost no effect))"}, {"measurement": "Herbicidal effect by soil treatment, G: green foxtail", "setting": "green foxtail [2]", "result": "0 (Herbicidal rate of 5% or less (almost no effect))"}, {"measurement": "herbicidal effect on N: redroot pigweed (evaluation grade 0-5)", "setting": "redroot pigweed [3]; [15]", "result": "2 (Herbicidal rate of 20% or more and less than 40%)"}, {"measurement": "Herbicidal effect by soil treatment, F: southern crabgrass", "setting": "southern crabgrass [4]", "result": "0 (Herbicidal rate of 5% or less (almost no effect))"}, {"measurement": "Herbicidal effect by soil treatment, O: lambsquarters", "setting": "lambsquarters [5]", "result": "0 (Herbicidal rate of 5% or less (almost no effect))"}, {"measurement": "Herbicidal effect by soil treatment, M: velvetleaf", "setting": "velvetleaf [6]", "result": "0 (Herbicidal rate of 5% or less (almost no effect))"}, {"measurement": "Herbicidal effect by soil treatment, H: barnyard grass", "setting": "barnyard grass [7]", "result": "0 (Herbicidal rate of 5% or less (almost no effect))"}, {"measurement": "herbicidal effect on G: green foxtail (evaluation grade 0-5)", "setting": "green foxtail [8]; [15]", "result": "0 (Herbicidal rate of 5% or less (almost no effect))"}, {"measurement": "herbicidal effect on O: lambsquarters (evaluation grade 0-5)", "setting": "lambsquarters [9]; [15]", "result": "3 (Herbicidal rate of 40% or more and less than 70%)"}, {"measurement": "herbicidal effect on F: southern crabgrass (evaluation grade 0-5)", "setting": "southern crabgrass [11]; [15]", "result": "0 (Herbicidal rate of 5% or less (almost no effect))"}, {"measurement": "herbicidal effect on M: velvetleaf (evaluation grade 0-5)", "setting": "velvetleaf [12]; [15]", "result": "0 (Herbicidal rate of 5% or less (almost no effect))"}, {"measurement": "Herbicidal effect by soil treatment, N: redroot pigweed", "setting": "redroot pigweed [13]", "result": "3 (Herbicidal rate of 40% or more and less than 70%)"}]}
